Patent publication US4923802A, “Peptide substrates for the detection, characterization and purification of protein kinase C” (Immunex Corporation, priority 1985, dated 1990)
“Also recorded” adds a separate entry of the source. Ends that are not written are not given here.

Experiments:
protein kinase C [1] = test: Direct assay for protein kinase C: phosphorylation of peptide substrate with (gamma 32P) ATP, phosphocellulose filter counting; format: biochemical, rat
Procedure: The peptide substrate of the present invention may be employed to assay for the presence of protein kinase C, for instance, during the above-outlined process of preparing the enzyme. The assay is based on the phosphorylation of the peptide substrate by protein kinase C. In the assay, the sample to be tested is mixed together with the peptide substrate, radiolabeled ATP, Ca^2+, phospholipid and diacylglycerol. The mixture is incubated for only a brief period to insure linearity of the reaction and then spotted onto phosphocellulose filter paper. The level of radioactivity on the filter is measured, for instance by liquid scintillation spectrometry. The level of radiation is indicative of the extent to which the substrate has been phosphorylated, which in turn is indicative of the amount of protein kinase C present in the sample being assayed. As can be appreciated, by use of the peptide substrate for the present invention, the presence of protein kinase C may be conveniently and rapidly assayed.
Protein kinase C was prepared from the brains of eight rats each having a weight of from 150 to 200 grams. The rats are sacrificed by cervical dislocation. The brains of the rats are removed and placed in eight volumes of ice-cold buffer A (40 ml), composed of the following: 20 mM 4-(2-hydroxyethyl)-1-piperazineethanesulfonic acid ("HEPES"), pH 7.5; 0.3 M sucrose; 2 mM ethyl-enediaminetetracetic acid ("EDTA"); 10 mM ethylene glycol bis(B -aminoethylether)-N, N, N', N'-tetraacetic acid ("EGTA"); 2 mM dithiothreitol ("DDT"); 1 mM phenylmethylsulfonyl; 10 ug/ml pepstatin A; 10 ug/ml soybean tripsyn inhibitor; 10 ug/ml leupeptin; and 10 uM E-64 (Peninsula Labs). E 64 is an inhibitor of CA^2+ -activated proteases. The brains are homogenized with 5 strokes of teflon-glass homogenizer and centrifuged for one hour at 100,000×g in a Ti 75 rotor. The resulting supernatant is saved and adjusted to a conductivity of 0.7-0.9 mmho. […]

protein kinase C [2] = conditions: cited from earlier work

| Substance | reaction rate (rate of phosphorylation) (protein kinase C [1]; peptide concentration 1 mM) [pmole PO4 /min] | Km (in words) (protein kinase C [1]; protein kinase C, no saturation at 3 mM) | saturation of protein kinase C with substrate (protein kinase C [1]; up to 3 mM peptide) | rate of reaction (protein kinase C [2]; peptide concentration 450 μM) [pmole PO4 /min] | Km (protein kinase C [2]; protein kinase C, O'Brian et al., read-out: Km of the reaction) [µM] |
| --- | --- | --- | --- | --- | --- |
| LRRASLG [Kemptide, Leu-Arg-Arg-Ala-Ser-Leu-Gly] | 20 | so high that it could not be determined; also recorded: too high to be determined | not saturated; also recorded: will not saturate | – | – |
| RRKASGPPV | – | – | – | 8 | 130 |
